For one assay, the system named is mice rhinitis model. Briefly: Mice rhinitis model experiment (OVA-sensitized BALB/c mice). The format is in vivo. The settings on record: Example 8 compound 1 μg/Kg. As to the method:
Mice Rhinitis Model Experiment
Female BALB/c mice (6-8 weeks) were sensitized with chicken ovalbumin (OVA, Sigma-Aldrich, St Louis, Mo., USA). The compound of the present invention (for example, the compound of Example 8) was administered to nasal mucosa, at a dose 1 μg/Kg. Glucocorticoid hormonal drug budesonide, a first-line clinical drug, was used as positive control, at a dose 1.28 mg/Kg. Meanwhile, there were provided a normal group wherein the mice were not sensitized and not administered, and an OVA group wherein the mice were sensitized and not administered. The following five indicators were detected: the number of sneezing, the number of nasal scratching within 10 min after administration; IL-4 level in bronchoalveolar lavage fluid; serum IgE level; lung tissue inflammation score. Lung tissue inflammation score was rated according to a single blind method: inflammation was divided into four levels from mild to severe, marked as 0-3 scores: 0 representing no detected inflammation; 1 representing occasional inflammatory cells being visible; 2 representing bronchus or blood vessel being surrounded by eosinophils, but less than five cell layers; 3 representing bronchus or blood vessel being surrounded by a large number of eosinophils, with 5 or more cell layers.

The target of another assay is T1, CCR4 receptor (Homo sapiens, UniProt P51679).
T1 construct: cDNA fragments of receptor open reading frame were respectively inserted into pcDI; expressed in transfected cells; host or cells: HEK293 cells, transiently transfected by electroporation with pCDI-CCR4
T1 sequence (P51679 1-360): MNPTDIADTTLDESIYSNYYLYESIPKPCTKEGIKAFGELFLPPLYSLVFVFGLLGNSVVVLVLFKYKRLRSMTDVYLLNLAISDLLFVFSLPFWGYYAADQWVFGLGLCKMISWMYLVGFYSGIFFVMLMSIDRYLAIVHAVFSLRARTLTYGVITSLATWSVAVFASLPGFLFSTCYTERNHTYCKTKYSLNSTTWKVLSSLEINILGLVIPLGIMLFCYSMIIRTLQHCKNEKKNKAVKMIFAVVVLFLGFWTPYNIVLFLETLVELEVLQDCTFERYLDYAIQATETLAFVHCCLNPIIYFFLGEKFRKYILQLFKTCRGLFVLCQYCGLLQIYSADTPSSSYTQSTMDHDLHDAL
Briefly: Inhibition of MDC/TARC/C27 mediated chemotactic response of CCR4-transfected HEK293 cells (Boyden chamber). In kind it is cell-based. The settings on record: chemotactic inhibition rate, compound 1 μM, HEK293 cells transfected with pCDI-CCR4, 5 hours. The source says: Whether or not compounds 1-14 of the present invention can inhibit MDC (Peprotech) mediated chemotactic response of HEK293 cells was studied by using Boyden chamber (Neuro Probe, Inc.).
1. Construction of Receptor Expression Plasmid:
cDNA fragments including human chemokine receptor open reading frame were obtained by the following method: CCR4 receptor was cloned from a cDNA library of K562 cells through polymerase chain reaction (PCR). Primers were designed according to the sequence of Gen-Bank™ accession: CCR4 (NM_005508.2). cDNA fragments of receptor open reading frame were respectively inserted into pcDI (vector transformed in the chamber: eukaryotic expression vector obtained by replacing a BglII KpnI fragment of pcDNA3 (Invitrogen Corporation) plasmid with a BglII KpnI fragment of pCI (Promega Corporation) plasmid) expression vector so as to make them effectively express in HEK293 cells.
HEK293 cells were cultured in RPMI 1640 (Life Technologies, Inc.) containing 10% heat-inactivated fetal bovine serum, 100 U/mL penicillin, 100 μg/mL streptomycin. Each 4×10^6 HEK293 cells/400 μL were transiently transfected through electroporation with 15 μg chemokine receptor expression plasmids, under the condition of 120 V for 20 ms, the instrument used being electric pulse generator (Electro Square porator ECM 830, BTX, San Diego, Calif.). After 36-48 hr, chemotactic assay was carried out.
3. The Inhibitory Effect on MDC/TARC/C27 Mediated Chemotactic Response of HEK293 Cells
Chemokines MDC/TARC/C27 were diluted to 10 ng/mL with RPMI1640 (Life Technologies, Inc.), 0.1% BSA (Sigma), and added to lower holes in a 48-hole chemotactic chamber, 27.5 μL each hole. Eukaryotic expression plasmids pCDI-CCR4 were electrically shifted to HEK293 cells, and cultured normally for 36 hr. The cells were digested, re-suspended with RPMI1640, 10% FBS (Life Technologies, Inc.), and subjected to rotary incubation at 37° C. for 6.5 hours. The cells were washed twice with RPMI1640, and suspended in RPMI1640, 0.1% BSA, with a final concentration of 1×10^6/mL. The cells and the candidate compound dissolved in DMSO (Sigma) were subjected to rotary incubation at room temperature for half an hour, the final concentration of the candidate compound being 1 μM, and the final concentration of DMSO being 0.1%, and then added to upper holes in the chemotactic chamber, 55 μL each hole. The two layers were spaced by a polycarbon membrane with pore size of […] (Neuro Probe, Inc.). The chemotactic reaction was carried out in 5% CO2 at 37° C. for 5 hours. There were three groups of control in the experiment, wherein the first group was positive control, in which the transfected cells were directly added to upper holes without incubated with the candidate compound, while chemokines MDC/TARC/C27 were added to lower holes. The second group was negative control, in which the transfected cells were directly added to upper holes without incubated with the candidate compound, while RPMI1640, 0.1% BSA were added to lower holes. The third group was solvent DMSO control of the candidate compound, in which the transfected cells and DMSO were incubated at room temperature, the final concentration of DMSO being 0.1%, while chemokines MDC/TARC/C27 were added to lower holes. After completion of the chemotactic reaction, the membrane was removed, fixed and stained, and, at 400× high magnification, five horizons were randomly selected to count the cells, which were then summed. The ratio of the sum of the numbers of cells in five horizons at high magnification in each experimental group to the sum of the numbers of cells in five horizons at high magnification in the negative control group is obtained as Chemotactic Index (CI). Chemotactic inhibition rate was calculated as follows: […]

Where [1] appears, read: OVA-sensitized female BALB/c mice, nasal mucosa, budesonide 1.28 mg/Kg, within 10 min after administration.
Where [2] appears, read: versus OVA-sensitized group, budesonide 1.28 mg/Kg.

We go through one molecule from US9493453B2, “Piperazinyl pyrimidine derivatives, preparation method and use thereof” (INSTITUTE OF PHARMACOLOGY AND TOXICOLOGY ACADEMY OF …, priority 2012, dated 2016).

A word on the inhibition: it is the percentage by which the read-out fell short of the control.

SMILES strings stand for the structures. Where two headings read alike, the source gives them in different places.

`O=C([C@H]1CCCCN1)N1CCN(c2nc(Cl)cc(NCc3ccc(Cl)cc3Cl)n2)CC1` [Compound 8, (R)-{4-{4-chloro-6-[(2,4-dichlorobenzyl)amino]pyrimidin-2-yl}piperazin-1-yl}(piperidin-2-yl)methanone]: in the assay with mice rhinitis model (IL-4 level in bronchoalveolar lavage fluid, OVA-sensitized mice, budesonide 1.28 mg/Kg), the IL-4 is recorded as 3.7 ± 0.3 pg/mL. For the same molecule, in the assay with mice rhinitis model (setting [1]), the Nasal scratching was 8.0 ± 0.6 times/10 mins and the Sneezing is 29.0 ± 3.5 times/10 mins. Also, the Inflammation score with mice rhinitis model (lung tissue inflammation score 0-3, single blind, OVA-sensitized mice, budesonide 1.28 mg/Kg) is 2.2 ± 0.4. The IgE with mice rhinitis model (serum IgE level, OVA-sensitized mice, budesonide 1.28 mg/Kg) is recorded as 2861 ± 49 ng/mL. Besides, in the assay with mice rhinitis model (versus OVA-sensitized and normal control groups, budesonide 1.28 mg/Kg), the “serum IgE level (result in words)” value was “higher than that of the normal control group”. In addition, in the assay with mice rhinitis model (setting [2]), the “IL-4 level in bronchoalveolar lavage fluid (result in words)” value is given as “significantly lower than that of the OVA-sensitized group”, the “lung tissue inflammation score (result in words)” value is “lower than that of the OVA-sensitized group” and the “number of sneezing (result in words)” value is reported as “could significantly reduce the number of sneezing”. The “number of nasal scratching (result in words)” value in the assay on mice rhinitis model (versus other groups) is “lower than that of any of other groups”. Further, on CCR4 receptor (chemokine C27 10 ng/mL, read-out: C27 inhibition rate), the inhibition at 1 µM was found to be 69.8%. Besides, the inhibition at 1 µM at CCR4 receptor (chemokine MDC 10 ng/mL, read-out: MDC inhibition rate) came out at 79.2%. Moreover, the inhibition at 1 µM at CCR4 receptor (chemokine TARC 10 ng/mL, read-out: TARC inhibition rate) is 60.4%.
